PubChem BioAssay AID330 (DTP/NCI, 2004)
Values joined by “and” are separate entries in the source; they are usually repeats but may differ in a detail not shown here. Equal entries are not always repeated. Toxic doses and inconclusive results are not listed. How the source made its calls: active means survival T/C of 150% or more; inactive means T/C below 125% in these data.

Test system: P388 leukemia ip, CD2F1 mice, survival T/C
Assay: NCI In Vivo Anticancer Drug Screen. Data for tumor model P388 Leukemia (intraperitoneal) in CD2F1 (CDF1) mice
Conditions: endpoint: median survival time, higher = longer survival
Method in brief: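 Mice carrying the transplanted tumor received test compound or vehicle. Survival was recorded in each group, and the value is the treated-group measurement divided by that of the vehicle-treated control group.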

[1] = dose: 50.0 mg/kg/injection, schedule: Q01DX009 (ip), vehicle: Klucel (hydroxypropylcellulose) (HPC)
[2] = dose: 100.0 mg/kg/injection, schedule: Q01DX009 (ip), vehicle: Klucel (hydroxypropylcellulose) (HPC)
[3] = dose: 200.0 mg/kg/injection, schedule: Q01DX009 (ip), vehicle: Klucel (hydroxypropylcellulose) (HPC)
[4] = dose: 25.0 mg/kg/injection, schedule: Q01DX005 (ip), vehicle: Klucel (hydroxypropylcellulose) (HPC)
[5] = dose: 50.0 mg/kg/injection, schedule: Q01DX005 (ip), vehicle: Klucel (hydroxypropylcellulose) (HPC)
[6] = dose: 100.0 mg/kg/injection, schedule: Q01DX005 (ip), vehicle: Klucel (hydroxypropylcellulose) (HPC)
[7] = dose: 200.0 mg/kg/injection, schedule: Q01DX005 (ip), vehicle: Klucel (hydroxypropylcellulose) (HPC)
[8] = dose: 3.12 mg/kg/injection, schedule: Q01DX005 (ip), vehicle: Klucel (hydroxypropylcellulose) (HPC)
[9] = dose: 6.25 mg/kg/injection, schedule: Q01DX005 (ip), vehicle: Klucel (hydroxypropylcellulose) (HPC)
[10] = dose: 12.5 mg/kg/injection, schedule: Q01DX005 (ip), vehicle: Klucel (hydroxypropylcellulose) (HPC)
[11] = dose: 50.0 mg/kg/injection, schedule: Q01DX009 (ip), vehicle: saline
[12] = dose: 100.0 mg/kg/injection, schedule: Q01DX009 (ip), vehicle: saline
[13] = dose: 200.0 mg/kg/injection, schedule: Q01DX009 (ip), vehicle: saline
[14] = dose: 100.0 mg/kg/injection, schedule: Q04DX002 (ip), vehicle: saline with Tween-80
[15] = dose: 60.0 mg/kg/injection, schedule: Q01DX005 (ip), vehicle: Klucel (hydroxypropylcellulose) (HPC)
[16] = dose: 120.0 mg/kg/injection, schedule: Q01DX005 (ip), vehicle: Klucel (hydroxypropylcellulose) (HPC)

Measured: T/C

N#Cc1cc(Cl)ccc1N=Cc1c(Cl)cccc1Cl
inactive: [1] 100 % of control | [2] 105 % of control | [3] 100 % of control

COc1ccc(-n2c(C)nc3c(cnn3C)c2=O)cc1
inactive: [4] 101 % of control and 96 % of control | [5] 100 % of control and 101 % of control and 97 % of control | [6] 108 % of control and 115 % of control and 95 % of control | [7] 99 % of control and 120 % of control and 97 % of control

C=CC(C)(C)[N+](C)(C)C
inactive: dose: 12.5 mg/kg/injection, schedule: Q01DX009 (ip), vehicle: saline 99 % of control | dose: 25.0 mg/kg/injection, schedule: Q01DX009 (ip), vehicle: saline 102 % of control

C=C[CH2][Sn]([CH3])([CH3])[CH2]C=C
inactive: dose: 50.0 mg/kg/injection, schedule: Q01DX005 (ip), vehicle: saline 96 % of control | dose: 100.0 mg/kg/injection, schedule: Q01DX005 (ip), vehicle: saline 107 % of control

CC1CCc2c(c3ccc(O)cc3oc2=O)C1 (configuration not stated)
inactive: [5] 101 % of control | [6] 96 % of control | [7] 92 % of control

CS(=O)(=O)C(CCC(=O)c1ccc([N+](=O)[O-])cc1)C(=O)c1ccccc1 (configuration not stated)
inactive: [5] 98 % of control | [6] 96 % of control | [7] 104 % of control

COc1ccc(OC)c2c1CCC1(C2)NC(=O)NC1=O (configuration not stated)
inactive: [5] 111 % of control | [6] 100 % of control | [7] 95 % of control

O=C(NP1(=O)NCc2ccccc2CN1)OC1CCCC1
inactive: [8] 99 % of control and 92 % of control | [9] 101 % of control and 91 % of control | [10] 99 % of control and 104 % of control | [4] 92 % of control and 93 % of control and 98 % of control | [5] 91 % of control | [7] 88 % of control

O=c1ccc2ccc(OC3OC(CO)C(O)C(O)C3O)cc2o1 (configuration not stated)
inactive: dose: 1.0 mg/kg/injection, schedule: Q01DX009 (ip), vehicle: saline with Tween-80 106 % of control | dose: 2.0 mg/kg/injection, schedule: Q01DX009 (ip), vehicle: saline with Tween-80 100 % of control | dose: 4.0 mg/kg/injection, schedule: Q01DX009 (ip), vehicle: saline with Tween-80 104 % of control

CNC(=O)OCc1ccc(NCCN(C)C)c2c(=O)c3cc(OS(=O)(=O)c4ccc(C)cc4)ccc3oc12
inactive: dose: 25.0 mg/kg/injection, schedule: Q01DX005 (ip), vehicle: water 90 % of control | dose: 50.0 mg/kg/injection, schedule: Q01DX005 (ip), vehicle: water 100 % of control | dose: 100.0 mg/kg/injection, schedule: Q01DX005 (ip), vehicle: water 102 % of control | dose: 200.0 mg/kg/injection, schedule: Q01DX005 (ip), vehicle: water 106 % of control

NC(CCCCNc1ccc([N+](=O)[O-])cc1[N+](=O)[O-])C(=O)NC(Cc1ccc(O)cc1)C(=O)O (configuration not stated)
inactive: dose: 50.0 mg/kg/injection, schedule: Q01DX005 (ip), vehicle: saline + Tween-80 + alcohol 101 % of control | dose: 100.0 mg/kg/injection, schedule: Q01DX005 (ip), vehicle: saline + Tween-80 + alcohol 101 % of control | dose: 200.0 mg/kg/injection, schedule: Q01DX005 (ip), vehicle: saline + Tween-80 + alcohol 103 % of control

C=C(C)C(=O)NC(C)C(=O)O (configuration not stated)
inactive: [11] 106 % of control | [12] 100 % of control | [13] 100 % of control

CC(C)=CCCC(C)=CCON(C)C (mixture of isomers)
inactive: [14] 92 % of control | dose: 200.0 mg/kg/injection, schedule: Q04DX002 (ip), vehicle: saline with Tween-80 101 % of control

CCN=C(Nc1cccc(C2=NCCN2)c1)c1ccc(C(=NCC)Nc2cccc(C3=NCCN3)c2)cc1
inactive: dose: 1.56 mg/kg/injection, schedule: Q01DX005 (ip), vehicle: Klucel (hydroxypropylcellulose) (HPC) 100 % of control | [8] 99 % of control | [9] 109 % of control | [10] 109 % of control

N#Cc1ccc(-c2nn[nH]n2)cc1
inactive: [5] 102 % of control | [6] 95 % of control | [7] 96 % of control

O=C1c2ccccc2C(=O)c2c(NCCNCCO)ccc(NCCO)c21
inactive: dose: 5.0 mg/kg/injection, schedule: Q04DX002 (ip), vehicle: saline 115 % of control

c1ccc(ON=C2c3ccccc3-c3ccccc32)cc1
inactive: dose: 75.0 mg/kg/injection, schedule: Q04DX003 (ip), vehicle: saline 113 % of control | dose: 125.0 mg/kg/injection, schedule: Q04DX003 (ip), vehicle: saline 109 % of control | dose: 250.0 mg/kg/injection, schedule: Q04DX003 (ip), vehicle: saline 104 % of control

O=c1[nH]c2cc(Cl)ccc2nc1/C=C(\O)c1ccccc1
inactive: [15] 96 % of control | [16] 91 % of control | dose: 240.0 mg/kg/injection, schedule: Q01DX005 (ip), vehicle: Klucel (hydroxypropylcellulose) (HPC) 92 % of control

NC(=S)N/N=C1/C(=O)N(c2ccc(S(N)(=O)=O)cc2)C(=O)C1C(=O)Nc1ccc(S(N)(=O)=O)cc1 (configuration not stated)
inactive: dose: 25.0 mg/kg/injection, schedule: Q04DX002 (ip), vehicle: saline with Tween-80 104 % of control | dose: 50.0 mg/kg/injection, schedule: Q04DX002 (ip), vehicle: saline with Tween-80 100 % of control | [14] 99 % of control and 100 % of control

C1CC[N-]CC1.C1CC[N-]CC1.C1CC[N-]CC1.C1CC[N-]CC1.O=S(=O)(O)O.[Cu+2]
inactive: dose: 10.0 mg/kg/injection, schedule: Q04DX002 (ip), vehicle: saline 100 % of control | dose: 20.0 mg/kg/injection, schedule: Q04DX002 (ip), vehicle: saline 110 % of control

Cc1ccc(S(=O)(=O)N/N=C/c2ccc(Cl)cc2)cc1
inactive: dose: 12.5 mg/kg/injection, schedule: Q01DX005 (ip), vehicle: saline with Tween-80 102 % of control | dose: 25.0 mg/kg/injection, schedule: Q01DX005 (ip), vehicle: saline with Tween-80 104 % of control and 108 % of control | dose: 50.0 mg/kg/injection, schedule: Q01DX005 (ip), vehicle: saline with Tween-80 100 % of control and 106 % of control and 107 % of control | dose: 200.0 mg/kg/injection, schedule: Q01DX005 (ip), vehicle: saline with Tween-80 121 % of control

CCOCCC(=O)NCC(=O)NC1C(CO)OC(Nc2ncnc3nc[nH]c23)C(O)C1O (configuration not stated)
inactive: dose: 3.12 mg/kg/injection, schedule: Q01DX009 (ip), vehicle: water 98 % of control | dose: 6.25 mg/kg/injection, schedule: Q01DX009 (ip), vehicle: water 88 % of control | dose: 12.5 mg/kg/injection, schedule: Q01DX009 (ip), vehicle: water 98 % of control | dose: 25.0 mg/kg/injection, schedule: Q01DX009 (ip), vehicle: water 106 % of control | dose: 50.0 mg/kg/injection, schedule: Q01DX009 (ip), vehicle: water 101 % of control

O=C1C=CC2(O)CCCN12 (configuration not stated)
inactive: dose: 5.0 mg/kg/injection, schedule: Q01DX005 (ip), vehicle: saline 106 % of control | dose: 10.0 mg/kg/injection, schedule: Q01DX005 (ip), vehicle: saline 110 % of control | dose: 20.0 mg/kg/injection, schedule: Q01DX005 (ip), vehicle: saline 118 % of control

Cc1ccc2c(C(=O)O)cc(N)cc2n1
inactive: dose: 2.0 mg/kg/injection, schedule: Q01DX005 (ip), vehicle: Klucel (hydroxypropylcellulose) (HPC) 100 % of control | dose: 4.0 mg/kg/injection, schedule: Q01DX005 (ip), vehicle: Klucel (hydroxypropylcellulose) (HPC) 104 % of control | dose: 7.5 mg/kg/injection, schedule: Q01DX005 (ip), vehicle: Klucel (hydroxypropylcellulose) (HPC) 102 % of control | dose: 8.0 mg/kg/injection, schedule: Q01DX005 (ip), vehicle: Klucel (hydroxypropylcellulose) (HPC) 97 % of control

COC(=O)c1nc(N)nc(C(=O)OC)c1C(=O)c1ccccc1
inactive: [15] 100 % of control | [16] 93 % of control

Cc1ncc([N+](=O)[O-])n1CCOC(=O)c1ccc(Cl)cc1
inactive: [1] 102 % of control | [2] 100 % of control | [3] 98 % of control

NNc1nncn2c1cc1ccccc12
inactive: dose: 6.25 mg/kg/injection, schedule: Q01DX009 (ip), vehicle: saline with Tween-80 98 % of control | dose: 12.5 mg/kg/injection, schedule: Q01DX009 (ip), vehicle: saline with Tween-80 95 % of control | dose: 25.0 mg/kg/injection, schedule: Q01DX009 (ip), vehicle: saline with Tween-80 92 % of control

CN(C)Cc1cocc(CN(C)C)c1=O
inactive: [11] 100 % of control | [12] 98 % of control | [13] 103 % of control
